# Test results: US20120264735A1 (priority 2009, published 2012)
# Biological target: T1, c-Met kinase (recombinant c-Met) (Homo sapiens, UniProt P08581)
# T1 construct: 0.27 nM recombinant c-Met
# Assay: In vitro kinase assay I (homogeneous time-resolved fluorescence tyrosine kinase assay)
# Type: biochemical
# In short: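 Biotinylated peptide (0.5 μM) phosphorylated by 0.2 nM recombinant c-Met with 50 μM MgATP, 60 min at room temperature, pH 7.4, 5% DMSO. EDTA stop; HTRF read with Eu-anti-phosphotyrosine antibody and streptavidin-APC. IC50 from 4-parameter logistic fit.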
# T1 sequence (P08581 25-1390): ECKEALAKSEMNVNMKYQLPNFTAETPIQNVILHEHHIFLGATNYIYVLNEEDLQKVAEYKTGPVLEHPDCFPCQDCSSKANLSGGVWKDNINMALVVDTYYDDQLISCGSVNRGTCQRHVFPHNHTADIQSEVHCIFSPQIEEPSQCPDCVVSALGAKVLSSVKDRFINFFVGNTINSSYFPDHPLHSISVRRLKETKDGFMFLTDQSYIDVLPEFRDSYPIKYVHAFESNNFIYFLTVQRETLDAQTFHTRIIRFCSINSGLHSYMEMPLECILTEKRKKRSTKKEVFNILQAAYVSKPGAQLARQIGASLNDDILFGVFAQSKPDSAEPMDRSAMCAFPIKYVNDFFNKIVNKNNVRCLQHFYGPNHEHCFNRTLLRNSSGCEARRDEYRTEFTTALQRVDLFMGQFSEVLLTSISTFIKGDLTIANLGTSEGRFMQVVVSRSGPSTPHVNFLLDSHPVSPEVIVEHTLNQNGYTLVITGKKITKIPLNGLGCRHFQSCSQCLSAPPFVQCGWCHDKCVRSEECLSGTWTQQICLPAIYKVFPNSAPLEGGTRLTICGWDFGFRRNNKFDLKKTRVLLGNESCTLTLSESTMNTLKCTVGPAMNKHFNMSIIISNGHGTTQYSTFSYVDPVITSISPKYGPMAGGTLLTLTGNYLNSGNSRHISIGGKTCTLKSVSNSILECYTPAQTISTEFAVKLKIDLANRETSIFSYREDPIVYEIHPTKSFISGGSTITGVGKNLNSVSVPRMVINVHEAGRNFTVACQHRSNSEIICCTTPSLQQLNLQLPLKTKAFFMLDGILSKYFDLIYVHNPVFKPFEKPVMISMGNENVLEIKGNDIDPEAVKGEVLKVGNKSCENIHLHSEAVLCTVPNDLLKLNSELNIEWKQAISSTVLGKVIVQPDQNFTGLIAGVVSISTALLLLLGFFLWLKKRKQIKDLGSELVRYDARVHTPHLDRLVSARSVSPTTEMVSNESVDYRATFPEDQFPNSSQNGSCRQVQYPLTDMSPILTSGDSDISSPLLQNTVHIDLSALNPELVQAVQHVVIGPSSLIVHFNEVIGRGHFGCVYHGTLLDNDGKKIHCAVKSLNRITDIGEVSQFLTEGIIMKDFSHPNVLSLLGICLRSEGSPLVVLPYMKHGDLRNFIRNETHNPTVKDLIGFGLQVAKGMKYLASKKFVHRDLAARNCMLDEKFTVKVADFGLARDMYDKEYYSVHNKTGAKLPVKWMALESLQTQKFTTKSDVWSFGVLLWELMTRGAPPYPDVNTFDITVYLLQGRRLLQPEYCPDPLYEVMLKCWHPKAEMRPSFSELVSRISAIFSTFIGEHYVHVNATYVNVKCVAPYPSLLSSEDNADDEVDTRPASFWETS
row,IC50 [nM],SMILES
1,< 100,"N#Cc1cccc(-n2ccc(=O)c(Cc3cccc(NC(=O)OCCC4CCOCC4)c3)n2)c1 [Example 598, 2-(tetrahydro-2H-pyran-4-yl)ethyl (3-{[1-(3-cyanophenyl)-4-oxo-1,4-dihydropyridazin-3-yl]methyl}phenyl)carbamate]"
2,< 100,"O=c1ccn(-c2ccc(F)c(F)c2)nc1Cc1cccc(-c2ncc(OCC3CCOC3)cn2)c1 (single isomer, unassigned) [Example 351, 1-(3,4-difluorophenyl)-3-(3-{5-[(3R or S)-tetrahydrofuran-3-ylmethoxy]pyrimidin-2-yl}benzyl)pyridazin-4(1H)-one]"
3,< 100,"CC(c1cccc(-c2ncc(OC3COC3)cn2)c1)c1nn(-c2cnn(C)c2)ccc1=O (single isomer, unassigned) [Example 216, 1-(1-methyl-1H-pyrazol-4-yl)-3-((1R or S)-1-{3-[5-(oxetan-3-yloxy)pyrimidin-2-yl]phenyl}ethyl)pyridazin-4(1H)-one]"
4,100 to 1000,"Cn1cc(-n2ccc(=O)c(Cc3cccc(-c4nccs4)c3)n2)cn1 [Example 20, 1-(1-methyl-1H-pyrazol-4-yl)-3-[3-(1,3-thiazol-2-yl)benzyl]pyridazin-4(1H)-one]"
5,< 100,"CCOc1cnc(-c2cccc(Cc3nn(-c4ccc(C#N)c(F)c4)ccc3=O)c2)nc1 [Example 148, 4-{3-[3-(5-ethoxypyrimidin-2-yl)benzyl]-4-oxopyridazin-1(4H)-yl}-2-fluorobenzonitrile]"
6,< 100,"CC(C)COC(=O)Nc1cccc(Cc2nn(-c3cc(F)cc(F)c3)ccc2=O)c1 [Example 17, 2-methylpropyl (3-{[1-(3,5-difluorophenyl)-4-oxo-1,4-dihydropyridazin-3-yl]methyl}phenyl)carbamate]"
7,100 to 1000,"CCOc1cnc2ccc(Cc3nn(-c4cnn(C)c4)ccc3=O)cc2c1 [Example 59, 3-[(3-ethoxyquinolin-6-yl)methyl]-1-(1-methyl-1H-pyrazol-4-yl)pyridazin-4(1H)-one]"
8,< 100,"Cn1cc(-n2ccc(=O)c(Cc3cccc(NC(=O)OCCCN4CCOCC4)c3)n2)cn1 [Example 537, 3-morpholin-4-ylpropyl (3-{[1-(1-methyl-1H-pyrazol-4-yl)-4-oxo-1,4-dihydropyridazin-3-yl]methyl}phenyl)carbamate]"
9,< 100,"CC(c1cccc(-c2ncc(-c3cnn(C)c3)cn2)c1)c1nn(-c2cnn(C)c2)ccc1=O (single isomer, unassigned) [Example 232, 1-(1-methyl-1H-pyrazol-4-yl)-3-[(1S or R)-1-{3-[5-(1-methyl-1H-pyrazol-4-yl)pyrimidin-2-yl]phenyl}ethyl]pyridazin-4(1H)-one]"
10,< 100,"Cn1cc(-n2ccc(=O)c(Cc3cccc(-c4ncc(CN5CCOCC5)cn4)c3)n2)cn1 [Example 426, 1-(1-Methyl-1H-pyrazol-4-yl)-3-{3-[5-(morpholin-4-ylmethyl)pyrimidin-2-yl]benzyl}pyridazin-4(1H)-one]"
11,< 100,"CCc1cnc(-c2cccc(Cc3nn(-c4cnn(C)c4)ccc3=O)c2)nc1 [Example 391, 3-[3-(5-Ethylpyrimidin-2-yl)benzyl]-1-(1-methyl-1H-pyrazol-4-yl)pyridazin-4(1H)-one]"
12,< 100,"CC(C)CNC(=O)c1cnc(-c2cccc(Cc3nn(-c4cnn(C)c4)ccc3=O)c2)nc1 [Example 480, N-(2-methylpropyl)-2-(3-{[1-(1-methyl-1H-pyrazol-4-yl)-4-oxo-1,4-dihydro-pyridazin-3-yl]methyl}phenyl)pyrimidine-5-carboxamide]"
13,100 to 1000,"COc1ccnc2ccc(Cc3nn(-c4cnn(C)c4)ccc3=O)cc12 [Example 142, 3-[(4-methoxyquinolin-6-yl)methyl]-1-(1-methyl-1H-pyrazol-4-yl)pyridazin-4(1H)-one]"
14,< 100,"Cn1cc(-n2ccc(=O)c(Cc3cccc(-c4ncc(OC5CCOCC5)cn4)c3)n2)cn1 [Example 277, 1-(1-methyl-1H-pyrazol-4-yl)-3-{3-[5-(tetrahydro-2H-pyran-4-yloxy)pyrimidin-2-yl]benzyl}pyridazin-4(1H)-one]"
15,< 100,"Cn1cc(-n2ccc(=O)c(Cc3cccc(-c4ncc(O[C@H]5CC[C@](C)(O)CC5)cn4)c3)n2)cn1 [Example 122, 3-(3-{5-[(trans-4-hydroxy-4-methylcyclohexyl)oxy]pyrimidin-2-yl}benzyl)-1-(1-methyl-1H-pyrazol-4-yl)pyridazin-4(1H)-one]"
16,< 100,"Cn1cc(-n2ccc(=O)c(Cc3cccc(-c4ncc(OCC5(F)COC5)cn4)c3)n2)cn1 [Example 272, 3-(3-{5-[(3-fluorooxetan-3-yl)methoxy]pyrimidin-2-yl}benzyl)-1-(1-methyl-1H-pyrazol-4-yl)pyridazin-4(1H)-one]"
17,< 100,"CCOc1cnc(-c2cccc(Cc3nn(-c4cnn(C)c4)ccc3=O)c2)nc1CC [Example 178, 3-[3-(5-ethoxy-4-ethylpyrimidin-2-yl)benzyl]-1-(1-methyl-1H-pyrazol-4-yl)pyridazin-4(1H)-one]"

row,IC50 [nM],SMILES
1,< 100,"COCCOCCOC(=O)Nc1cccc(Cc2nn(-c3cc(F)cc(F)c3)ccc2=O)c1 [Example 608, 2-(2-methoxyethoxy)ethyl (3-{[1-(3,5-difluorophenyl)-4-oxo-1,4-dihydropyridazin-3-yl]methyl}phenyl)carbamate]"
2,< 100,"CC(c1cccc(-c2ncc(OC(F)F)cn2)c1)c1nn(-c2cnn(C)c2)ccc1=O (single isomer, unassigned) [Example 210, 3-[(1R or S)-1-{3-[5-(difluoromethoxy)pyrimidin-2-yl]phenyl}ethyl]-1-(1-methyl-1H-pyrazol-4-yl)pyridazin-4(1H)-one]"
3,< 100,"CN(C)C(=O)CCOC(=O)Nc1cccc(Cc2nn(-c3cccc(C#N)c3)ccc2=O)c1 [Example 588, 3-(dimethylamino)-3-oxopropyl (3-{[1-(3-cyanophenyl)-4-oxo-1,4-dihydropyridazin-3-yl]methyl}phenyl)carbamate]"
4,< 100,"COCCNC(=O)Nc1cccc(Cc2nn(-c3cnn(C)c3)ccc2=O)c1 [Example 493, 1-(2-methoxyethyl)-3-(3-{[1-(1-methyl-1H-pyrazol-4-yl)-4-oxo-1,4-dihydropyridazin-3-yl]methyl}phenyl)urea]"
5,< 100,"CCn1cc(-n2ccc(=O)c(Cc3cccc(-c4ncc(OCCn5cccn5)cn4)c3)n2)cn1 [Example 315, 1-(1-ethyl-1H-pyrazol-4-yl)-3-(3-{5-[2-(1H-pyrazol-1-yl)ethoxy]pyrimidin-2-yl}benzyl)pyridazin-4(1H)-one]"
6,< 100,"Cn1cc(-n2ccc(=O)c(Cc3cccc(NC(=O)OCCN4CCC(F)(F)C4)c3)n2)cn1 [Example 524, 2-(3,3-difluoropyrrolidin-1-yl)ethyl (3-{[1-(1-methyl-1H-pyrazol-4-yl)-4-oxo-1,4-dihydropyridazin-3-yl]methyl}phenyl)carbamate]"
7,< 100,"CCCOC(=O)Nc1cccc(Cc2nn(-c3cnn(CCO)c3)ccc2=O)c1 [Example 644, propyl [3-({1-[1-(2-hydroxyethyl)-1H-pyrazol-4-yl]-4-oxo-1,4-dihydropyridazin-3-yl}methyl)phenyl] carbamate]"
8,< 100,"CCn1cc(-n2ccc(=O)c(Cc3cccc(-c4ncc(OCC5CCCO5)cn4)c3)n2)cn1 (racemic) [Example 310, rac-1-(1-ethyl-1H-pyrazol-4-yl)-3-{3-[5-(tetrahydrofaran-2-ylmethoxy)pyrimidin-2-yl]benzyl}pyridazin-4(1H)-one]"
9,< 100,"O=C(Nc1cccc(Cc2nn(-c3cc(F)c(F)c(F)c3)ccc2=O)c1)OCCCN1CCNCC1 [Example 623, 3-piperazin-1-ylpropyl (3-{[4-oxo-1-(3,4,5-trifluorophenyl)-1,4-dihydropyridazin-3-yl]methyl}phenyl)carbamate]"
10,< 100,"Cn1cc(-n2ccc(=O)c(Cc3cccc(-c4ncc(OCC(F)F)cn4)c3)n2)cn1 [Example 274, 3-{3-[5-(2,2-difluoroethoxy)pyrimidin-2-yl]benzyl}-1-(1-methyl-1H-pyrazol-4-yl)pyridazin-4(1H)-one]"
11,< 100,"Cn1cc(-n2ccc(=O)c(Cc3cccc(NC(=O)OCC4CCCOC4)c3)n2)cn1 (racemic) [Example 569, rac-tetrahydro-2H-pyran-3-ylmethyl (3-{[1-(1-methyl-1H-pyrazol-4-yl)-4-oxo-1,4-dihydropyridazin-3-yl]methyl}phenyl)carbamate]"
12,< 100,"Cn1cc(-n2ccc(=O)c(Cc3cccc(NC(=O)OCC(F)(F)CN)c3)n2)cn1 [Example 614, 3-Amino-2,2-difluoropropyl (3-{[1-(1-methyl-1H-pyrazol-4-yl)-4-oxo-1,4-dihydropyridazin-3-yl]methyl}phenyl)carbamate]"
13,100 to 1000,"Cn1cnc(-c2cccc(Cc3nn(-c4ccccc4)ccc3=O)c2)n1 [Example 670, 3-[3-(1-Methyl-1H-1,2,4-triazol-3-yl)benzyl]-1-phenylpyridazin-4(1H)-one]"
14,< 100,"Cn1cc(-n2ccc(=O)c(Cc3cccc(NC(=O)OCC4CCNCC4)c3)n2)cn1 [Example 617, piperidin-4-ylmethyl (3-{[1-(1-methyl-1H-pyrazol-4-yl)-4-oxo-1,4-dihydropyridazin-3-yl]methyl}phenyl)carbamate]"
15,< 100,"Cn1cc(-n2ccc(=O)c(Cc3cccc(-c4ncc(NC(=O)CC5CCOCC5)cn4)c3)n2)cn1 [Example 459, N-[2-(3-{[1-(1-methyl-1H-pyrazol-4-yl)-4-oxo-1,4-dihydro-pyridazin-3-yl]methyl}phenyl)pyrimidin-5-yl]-2-(tetrahydro 2H-pyran-4-yl)acetamide]"
16,< 100,"CCCOC(=O)Nc1cccc(Cc2nn(-c3ccc(Br)cc3)ccc2=O)c1 [Example 14, propyl (3-{[1-(4-bromophenyl)-4-oxo-1,4-dihydropyridazin-3-yl]methyl}phenyl)carbamate]"
17,100 to 1000,"CCOC(=O)Nc1cccc(Cc2nn(-c3ccccc3)ccc2=O)c1 [Example 642, Ethyl {3-[(4-oxo-1-phenyl-1,4-dihydropyridazin-3-yl)methyl]phenyl}carbamate]"
